Usually IC50 stands for the midpoint of a concentration-inhibition curve.

Molecules are shown by their SMILES.

The experiment deals with TNFα release from human peripheral blood mononuclear cells. In words: Inhibition of LPS-stimulated TNFα release from human peripheral blood mononuclear cells (TNFα screen). It counts as cell-based. To be noted: human PBMC, LPS stimulation, 18 hours incubation, TNFα in supernatant by ELISA. The method, then: Venous blood is collected from healthy volunteers and the mononuclear cells purified by centrifugation through Histopaque (Ficoll) cushions. TNFα production from these cells is stimulated by addition of lipopolysaccharide. After 18 hours incubation in the presence of LPS, the cell supernatant is removed and the concentration of TNFa in the supernatant determined by ELISA. Addition of PDE4 inhibitors reduces the. amount of TNFQ produced. An IC50 is determined which is equal to the concentration of compound that gives 50% inhibition TNFα production as compared to the LPS stimulated control wells.
In general terms: ELISA stands for enzyme-linked immunosorbent assay.
For the molecule `O=C(O)c1ccccc1C(=O)NC1CCC(NC(=O)c2cc(F)cnc2Oc2ccc(F)cc2)CC1` (centres unmarked) [Example 76], the IC50 turned out to be 49 nM.
`Cc1ccc(O)c(C(=O)N[C@H]2CC[C@@H](NC(=O)c3cc(F)cnc3Oc3cccc(OC4CCC4)c3)CC2)c1` [Example 205] returned an IC50 of 0.55 nM.
As to `Cc1ccc(O)c(C(=O)N[C@H]2CC[C@@H](NC(=O)c3cc(F)cnc3Oc3cccc(C4CC4)c3)CC2)c1` [Example 204], the IC50 was determined as 0.3 nM.
The figure for `COc1ccc(C(=O)N[C@H]2CC[C@@H](NC(=O)c3cc(F)cnc3Oc3cccc(F)c3)CC2)c(O)c1` [Example 152] is 0.2 nM.
Molecule `COc1cccc(Oc2ncc(F)cc2C(=O)N[C@H]2CC[C@@H](NC(=O)c3ccc(OC)cc3O)CC2)c1` [Example 197] returned an IC50 of 1.8 nM.
To `O=C(NC1CCN(C(=O)Cc2ccc(O)cc2)CC1)c1cc(F)cnc1Oc1ccc(F)cc1` [Example 88] belongs 114 nM.
To `Cc1ccc(C(=O)N[C@H]2CC[C@@H](NC(=O)c3cc(F)cnc3Oc3ccc(F)cc3C)CC2)c(O)c1` [Example 203] belongs 7 nM; to `O=C(NC1CCN(C(=O)CCc2ccccc2O)CC1)c1cc(F)cnc1Oc1ccc(F)cc1` [Example 91], 37 nM.

The values are drawn from patent US20030220361A1, “Nicotinamide derivatives and a tiotropium salt in combination for the treatment of diseases” (priority 2002, published 2003).
